How the values were obtained:
Format in all cases: in vivo, mice
[1] = system: ethanol-induced lesion in mouse liver; experiment: HE or Oil Red O staining of liver sections (ethanol-induced alcoholic steatohepatitis); details: group ES: 2.0% v/v ethanol diet + 2.5 mg sesaminol per day oral, 4 weeks; group E significant increase
Text: Additionally, liver sections of the mice in each group (groups C, E, S, and ES) were stained with HE or Oil Red 0, and observed under a microscope.
Liver tissue samples were each fixed in a 10% v/v neutral formaldehyde solution overnight at room temperature and paraffin-embedded. The liver tissue sections were then stained with HE reagent, and frozen tissue sections were stained with Oil Red O reagent. Each stained specimen was observed under a microscope and subjected to image analysis.

[2] = system: IL-6; experiment: IL-6 expression in colon tissue (qRT-PCR, ELISA); details: group ES: 2.0% v/v ethanol diet + 2.5 mg sesaminol per day oral, 2 weeks, vs group E; higher than group C
Text: (§1) It has been reported that chronic consumption of an excessive amount of ethanol can induce inflammation associated with tumor formation in colon tissue. Therefore, in order to verify whether oral administration of sesaminol has a preventive effect on ethanol-induced colitis, the expression levels of inflammatory cytokines (TNF-α and IL-6) and chemokine (MCP-1) in the large intestinal lamina propria of the mice in the four groups (groups C, S, E, and ES) were examined by qRT-PCR and ELISA. The NF-κB activity in the mice in the four groups was also examined. NF-κB is a transcription factor that is involved in expression of genes regulating inflammation and is activated by exposure of immune cells to pro-inflammatory factors.
Total RNA was extracted from colon tissue samples. […]
A colon tissue sample (100 mg) was homogenized in 1 mL of an M-PER mammalian protein extraction reagent (Pierce) containing a diluent of a protease inhibitor cocktail (Nacalai Tesque, Inc.), and the resulting homogenate was centrifuged at 20,000× g at 4° C. for 15 minutes. The protein concentration of the supernatant was measured with a protein assay reagent (Bio-Rad Laboratories, Inc.), and equal amounts of proteins were used for analysis of the expression levels of TNF-α, IL-6, and MCP-1 by ELISA.

[3] = system: NF-κB p65; experiment: NF-κB p65 activation level in colon tissue extract by ELISA; details: group ES: 2.0% v/v ethanol diet + 2.5 mg sesaminol per day oral, 2 weeks, vs group E
Text: as §1

[4] = system: ethanol-induced lesions in mouse colon; experiment: Microscopic evaluation of colon tissue (HE, TB, PAS, MUC2 staining), 4 weeks; details: group ES: 2.0% v/v ethanol diet + 2.5 mg sesaminol per day oral
Method: In order to verify the longer-term effect of oral administration of sesaminol on ethanol-induced oxidative stress in mouse colon, the colonic epithelium of the mice in each group (groups C, E, S, and ES) described in Example 7 was HE-stained, TB-stained, and periodic-acid-Schiff (PAS)-stained and observed under a microscope (FIGS. 10(A),(B), and (C)). Immunostaining with MUC2 polyclonal antibody was then performed (FIG. 10(D)). HE staining, TB staining, and immunostaining with MUC2 polyclonal antibody were performed in the same manner as in Example 2.
Colon tissue samples were each fixed in a 10% v/v neutral formaldehyde solution overnight at room temperature and paraffin-embedded. The colon tissue sections were then stained with PAS staining reagent for the detection of goblet cells. Each stained specimen was observed under a microscope and subjected to image analysis.

[5] = TG amount in the liver, 4 weeks; details: mean ±SD
Method: The liver function and plasma lipid level in the mice in each group were examined by measuring the percentage of the liver weight relative to the body weight, the triglyceride (TG) concentration in the liver, the aspartate aminotransferase (AST) activity in the plasma, the alanine aminotransferase (ALT) activity in the plasma, and the TG concentration in the plasma of the mice in each group.
Each liver was homogenized at 4° C., and TG was extracted according to the product protocol of a reagent kit for TG extraction from tissue (Lipid Droplet Isolation Kit, produced by Cell Biolabs, Inc.). The amounts of TG and protein in each extracted sample were quantified according to the product protocol of each measuring reagent and converted to the TG amount (mg) per protein (g) for evaluation.

SMILES: Oc1cc2c(cc1C1OCC3C(c4ccc5c(c4)OCO5)OCC13)OCO2 (stereo not drawn) [Sesaminol]
- lipid droplets in Oil Red O-stained liver tissue [1]: decrease in lipid droplets
- expression level of IL-6 (mRNA by qRT-PCR, protein by ELISA) [2]: significantly lower than those in group E
- NF-κB p65 activation level [3]: significantly lower than that in group E
- histological image of colon tissue (epithelium atrophy, goblet cells, mucus-secreting cells) [4]: tendency of returning to the histological image of group C
- Liver TG ([5]; EtOH (2.0% v/v) + Sesaminol group ES): 51.8 ± 9.5 mg/g of protein
- Liver TG ([5]; Sesaminol (2.5 mg/d) group S): 38.1 ± 12.4 mg/g of protein
